Results: US7977327B2, “Substituted pyrrolidine derivative” (Daiichi Sankyo Company, Limited, priority 2004, dated 2011)
Values after ≈ are worked out from the molar mass of the structure shown. Where two headings read alike, the source gives them in different places.

How the values were obtained:
E. coli NIHJ = experiment: Antibacterial activity (MIC), standard method of the Japan Society of Chemotherapy; assay type: cell-based; conditions: E. coli NIHJ
Protocol: (§1) The antimicrobial activities of the compounds of the present invention were determined according to a standard method designated by the Japan Society of Chemotherapy. The results are expressed by MIC (μg/mL) (Table 1). In Table 1, S. aureus 870307 and S. pneumonia J24 are quinolone-resistant bacteria.

E. faevcalis ATCC 19433 = experiment: as above; assay type: cell-based; conditions: E. faevcalis ATCC 19433
Protocol: as §1

K. pneumoniae TYPE I = experiment: as above; assay type: cell-based; conditions: K. pneumoniae TYPE I
Protocol: as §1

P. Vulgalis 08601 = experiment: as above; assay type: cell-based; conditions: P. Vulgalis 08601
Protocol: as §1

P. aeruginosa 32104 = experiment: as above; assay type: cell-based; conditions: P. aeruginosa 32104
Protocol: as §1

P. aeruginosa 32121 = experiment: as above; assay type: cell-based; conditions: P. aeruginosa 32121
Protocol: as §1

S. aureus 870307 = experiment: as above; assay type: cell-based; conditions: S. aureus 870307, quinolone-resistant
Protocol: as §1

S. aureus FDA 209P = experiment: as above; assay type: cell-based; conditions: S. aureus FDA 209P
Protocol: as §1

S. epidermidis 56500 = experiment: as above; assay type: cell-based; conditions: S. epidermidis 56500
Protocol: as §1

S. flexneri 2A 5503 = experiment: as above; assay type: cell-based
Protocol: as §1

S. maltophilia IID 1275 = experiment: as above; assay type: cell-based; conditions: S. maltophilia IID 1275
Protocol: as §1

S. marcescens 10100 = experiment: as above; assay type: cell-based; conditions: S. marcescens 10100
Protocol: as §1

S. pneumoniae J24 = experiment: as above; assay type: cell-based; conditions: S. pneumoniae J24, quinolone-resistant
Protocol: as §1

S. pyogenes G-36 = experiment: as above; assay type: cell-based; conditions: S. pyogenes G-36
Protocol: as §1

[1] = tested on: Chinese hamster lung (CHL/IU) cells; experiment: Effect of inducing chromosomal aberration; assay type: cell-based; conditions: for Percentile induction of structural aberration (TA %): 24 hours, CHL/IU cells
Protocol: From each sample solution, samples to be tested having a concentration of 1, 3, 10, 30, 50, and 100 μg/mL (as reduced to free form) were prepared. As a negative control, 0.1 mol/L NaOH was employed.
Chinese hamster lung (CHL/IU) cells in logarithmic growth phase were employed. The cells were treated in a culture solution containing each sample to be tested for 24 hours. Subsequently, a chromosome specimen was prepared from the thus-treated cells. The culture solution employed was an Eagle's MEM (product of NISSUI PHARMACEUTICAL CO., LTD.) medium containing 15% fetal bovine serum (15% FBS-MEM).
In each sample concentration, 100 cells during metaphase were observed, to thereby record types and numbers of the chromosomal aberration.

[2] = Escherichia coli, read-out: MIC
[3] = Klebsiella pneumoniae, read-out: MIC
[4] = Pseudomonas aeruginosa, read-out: MIC
[5] = Staphylococcus aureus, read-out: MIC
[6] = Staphylococcus aureus, FDA209P, read-out: MIC
[7] = Staphylococcus epidermidis, read-out: MIC
[8] = Shigella flexneri, 2A5503, read-out: MIC
[9] = Stenotrophomonas maltophilia, IID1275, read-out: MIC
[10] = Serratia marcescens, read-out: MIC
[11] = Streptococcus pneumoniae, read-out: MIC
[12] = Streptococcus pyogenes, G36, read-out: MIC

SMILES | MIC (E. coli NIHJ; [2]) [µg/mL] | MIC (E. faevcalis ATCC 19433; read-out: MIC) [µg/mL] | MIC (K. pneumoniae TYPE I; [3]) [µg/mL] | MIC (P. Vulgalis 08601; read-out: MIC) [µg/mL] | MIC (P. aeruginosa 32104; [4]) [µg/mL] | MIC (P. aeruginosa 32121; [4]) [µg/mL] | MIC (S. aureus 870307; [5]) [µg/mL] | MIC (S. aureus FDA 209P; [6]) [µg/mL] | MIC (S. epidermidis 56500; [7]) [µg/mL] | MIC (S. flexneri 2A 5503; [8]) [µg/mL] | MIC (S. maltophilia IID 1275; [9]) [µg/mL] | MIC (S. marcescens 10100; [10]) [µg/mL] | MIC (S. pneumoniae J24; [11]) [µg/mL] | MIC (S. pyogenes G-36; [12]) [µg/mL] | melting point [°C] | also measured
CC[C@H]1CN(c2c(F)cc3c(=O)c(C(=O)O)cn([C@@H]4C[C@@H]4F)c3c2C)C[C@H]1N [Compound No. 2, 7-[(3S,4S)-3-Amino-4-ethylpyrrolidin-1-yl]-6-fluoro-1-[(1R,2S)-2-fluorocyclopropyl]-8-methyl-1,4-dihydro-4-oxoquinoline-3-carboxylic acid] | ≤ 0.003 | 0.1 (≈ 0.255 µM) | 0.025 (≈ 0.0639 µM) | 0.006 (≈ 0.0153 µM) | 0.05 (≈ 0.128 µM) | 0.025 (≈ 0.0639 µM) | 0.39 (≈ 0.996 µM) | 0.006 (≈ 0.0153 µM) | 0.025 (≈ 0.0639 µM) | ≤ 0.003 | 0.05 (≈ 0.128 µM) | 0.025 (≈ 0.0639 µM) | 0.025 (≈ 0.0639 µM) | 0.025 (≈ 0.0639 µM) |  | Percentile induction of structural aberration (TA %) ([1]; 1 μg/mL): 1%; Percentile induction of structural aberration (TA %) ([1]; 3 μg/mL): 1%; Percentile induction of structural aberration (TA %) ([1]; 10 μg/mL): 1%; Percentile induction of structural aberration (TA %) ([1]; 30 μg/mL): 2%; Percentile induction of structural aberration (TA %) ([1]; 50 μg/mL): 3%; Percentile induction of structural aberration (TA %) ([1]; 100 μg/mL): 8%; Significant increase in number of the cells exhibiting chromosomal aberration ([1]; at a concentration of up to 100 μg/mL): not observed
COc1c(N2C[C@@H](N)[C@@H](C3CC3)C2)c(F)cc2c(=O)c(C(=O)O)cn([C@@H]3C[C@@H]3F)c12 [Compound No. 8, 7-[(3S,4S)-3-Amino-4-cyclopropylpyrrolidin-1-yl]-6-fluoro-1-[(1R,2S)-2-fluorocyclopropyl]-8-methoxy-1,4-dihydro-4-oxoquinoline-3-carboxylic acid] | 0.006 (≈ 0.0143 µM) | 0.1 (≈ 0.238 µM) | 0.05 (≈ 0.119 µM) | 0.025 (≈ 0.0596 µM) | 0.2 (≈ 0.477 µM) | 0.1 (≈ 0.238 µM) | 0.39 (≈ 0.93 µM) | 0.012 (≈ 0.0286 µM) | 0.1 (≈ 0.238 µM) | 0.025 (≈ 0.0596 µM) | 0.2 (≈ 0.477 µM) | 0.1 (≈ 0.238 µM) | 0.1 (≈ 0.238 µM) | 0.1 (≈ 0.238 µM) | 211 to 214 | 
Cc1c(N2C[C@@H](N)[C@@H](C(C)C)C2)c(F)cc2c(=O)c(C(=O)O)cn([C@@H]3C[C@@H]3F)c12 [Compound No. 16, 7-[(3S,4S)-3-Amino-4-isopropylpyrrolidine-1-yl]-6-fluoro-1-[(1R,2S)-2-fluorocyclopropyl]-8-methyl-1,4-dihydro-4-oxoquinoline-3-carboxylic acid] | 0.006 (≈ 0.0148 µM) | 0.1 (≈ 0.247 µM) | 0.025 (≈ 0.0617 µM) | 0.025 (≈ 0.0617 µM) | 0.2 (≈ 0.493 µM) | 0.1 (≈ 0.247 µM) | 0.1 (≈ 0.247 µM) | 0.006 (≈ 0.0148 µM) | 0.025 (≈ 0.0617 µM) | 0.006 (≈ 0.0148 µM) | 0.05 (≈ 0.123 µM) | 0.05 (≈ 0.123 µM) | 0.05 (≈ 0.123 µM) | 0.025 (≈ 0.0617 µM) | 124 to 127 | 
COc1c(N2C[C@@H]3CCCN[C@@H]3C2)c(F)cc2c(=O)c(C(=O)O)cn(C3CC3)c12 [MFLX, reference compound] |  |  |  |  |  |  |  |  |  |  |  |  |  |  |  | MIC (E. coli NIHJ): 0.006 µg/mL (≈ 0.0149 µM); MIC (E. faevcalis ATCC 19433): 0.2 µg/mL (≈ 0.498 µM); MIC (K. pneumoniae TYPE I): 0.05 µg/mL (≈ 0.125 µM); MIC (P. Vulgalis 08601): 0.025 µg/mL (≈ 0.0623 µM); MIC (P. aeruginosa 32104): 0.39 µg/mL (≈ 0.972 µM); MIC (P. aeruginosa 32121): 0.2 µg/mL (≈ 0.498 µM); MIC (S. aureus 870307): 0.78 µg/mL (≈ 1.94 µM); MIC (S. aureus FDA 209P): 0.025 µg/mL (≈ 0.0623 µM); MIC (S. epidermidis 56500): 0.1 µg/mL (≈ 0.249 µM); MIC (S. flexneri 2A 5503): 0.012 µg/mL (≈ 0.0299 µM); MIC (S. maltophilia IID 1275): 0.1 µg/mL (≈ 0.249 µM); MIC (S. marcescens 10100): 0.1 µg/mL (≈ 0.249 µM); MIC (S. pneumoniae J24): 0.025 µg/mL (≈ 0.0623 µM); MIC (S. pyogenes G-36): 0.2 µg/mL (≈ 0.498 µM)
